# Measurements published in patent US6472418B1, “Non-peptide NK1 receptors antagonists” (Warner-Lambert Company, priority 1998, dated 2002).
# Biological target: T1, Human NK1 Receptor (Homo sapiens, UniProt P25103)
# T1 construct: endogenous in cells; host or cells: Human lymphoma IM9 cells (whole cells)
# Assay: In Vitro Human NK1 Receptor Binding Assay ([125I]Bolton-Hunter substance P displacement, IM9 cells)
# Conditions: Human lymphoma IM9 cells, [125I]Bolton-Hunter substance P; Table 3, array-synthesis products; read-out: IC50 (nM) hNK1
# How it was run: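 Radioligand displacement on whole IM9 human lymphoma cells (2.5×10^6 cells/mL) using [125I]Bolton-Hunter substance P (0.05-0.1 nM), 50 min at 21° C in Tris pH 7.4/MnCl2 buffer with protease inhibitors. Non-specific binding defined by […] [Sar9, Met(O2)11] substance P. Filtration, gamma counting, iterative curve fitting.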
# T1 sequence (P25103 whole entry): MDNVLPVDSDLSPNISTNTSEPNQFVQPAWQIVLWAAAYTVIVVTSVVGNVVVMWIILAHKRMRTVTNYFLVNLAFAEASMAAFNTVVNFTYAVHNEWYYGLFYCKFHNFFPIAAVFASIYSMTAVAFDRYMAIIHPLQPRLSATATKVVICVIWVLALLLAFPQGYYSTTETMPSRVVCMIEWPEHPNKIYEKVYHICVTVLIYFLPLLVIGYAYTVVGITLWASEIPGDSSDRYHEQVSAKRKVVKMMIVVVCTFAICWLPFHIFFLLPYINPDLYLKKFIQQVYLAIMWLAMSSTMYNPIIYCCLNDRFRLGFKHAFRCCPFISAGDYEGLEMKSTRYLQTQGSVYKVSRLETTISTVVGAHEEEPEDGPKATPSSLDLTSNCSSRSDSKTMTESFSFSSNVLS
row,Compound,IC50 [nM]
1,O=C(NCc1ccncc1)C(Cc1c[nH]c2ccccc12)NCc1cc2ccccc2o1 (stereo not shown) [Example 240],196
2,"O=C(NCc1ccc2c(c1)OCO2)C(Cc1c[nH]c2ccccc12)NCc1cc2ccccc2o1 (stereo not shown) [Example 267, N-Benzo[1,3]-dioxol-5-ylmethyl-2-[(benzofuran-2-ylmethyl)-amino]-3-(1H-indol-3-yl)-propionamide]",55
3,"CN(C)c1ccc(CNC(=O)C(Cc2c[nH]c3ccccc23)NCc2cc3ccccc3o2)cc1 (stereo not shown) [Example 214, 2-[(Benzofuran-2-ylmethyl)-amino]-N-(4-dimethylamino-benzyl)-3-(1H-indol-3-yl)-propionamide]",4010
4,"O=C(NCc1cccnc1)C(Cc1c[nH]c2ccccc12)NCc1cc2ccccc2o1 (stereo not shown) [Example 231, 2-[(Benzofuran-2-ylmethyl)-amino]-3-(1H-indol-3-yl)-N-pyridin-3-ylmethyl-propionamide]",790
5,"CC(NC(=O)C(Cc1c[nH]c2ccccc12)NCc1cc2ccccc2o1)c1ccc(Cl)s1 (stereo not shown) [Example 243, 2-[(Benzofuran-2-ylmethyl)-amino]-N-[1-(5-chloro-thiophen-2-yl)-ethyl]-3-(1H-indol-3-yl)-propionamide]",15
6,"O=C(NC1CCC(O)CC1)C(Cc1c[nH]c2ccccc12)NCc1cc2ccccc2o1 (stereo not shown) [Example 273, 2-[(Benzofuran-2-ylmethyl)-amino]-N-(4-hydroxy-cyclohexyl)-3-(1H-indol-3-yl)-propionamide]",> 10000
7,"Cc1ccccc1CNC(=O)C(Cc1c[nH]c2ccccc12)NCc1cc2ccccc2o1 (stereo not shown) [Example 242, 2-[(Benzofuran-2-ylmethyl)-amino]-3-(1H-indol-3-yl)-N-(2-methyl-benzyl)-propionamide]",170
8,"CCC(NC(=O)C(Cc1c[nH]c2ccccc12)NCc1cc2ccccc2o1)c1ccccc1 (stereo not shown) [Example 259, 2-[(Benzofuran-2-ylmethyl)-amino]-3-(1H-indol-3-yl)-N-(1-phenyl-propyl)-propionamide]",21
9,"CC(CCc1ccccc1)NC(=O)C(Cc1c[nH]c2ccccc12)NCc1cc2ccccc2o1 (stereo not shown) [Example 307, 2-[(Benzofuran-2-ylmethyl)-amino]-3-(1H-indol-3-yl)-N-(1-methyl-3-phenyl-propyl)-propionamide]",392
10,"Nc1ccc(CNC(=O)C(Cc2c[nH]c3ccccc23)NCc2cc3ccccc3o2)cc1 (stereo not shown) [Example 306, N-(4-Amino-benzyl)-2-[(benzofuran-2-ylmethyl)-amino]-3-(1H-indol-3-yl)-propionamide]",639
11,"CC(C)(NC(=O)C(Cc1c[nH]c2ccccc12)NCc1cc2ccccc2o1)C1CCCCC1 (stereo not shown) [Example 225, 2-[(Benzofuran-2-ylmethyl)-amino]-N-(1-cyclohexyl-1-methyl-ethyl)-3-(1H-indol-3-yl)-propionamide]",1340
12,"O=C(NCc1cc(F)ccc1F)C(Cc1c[nH]c2ccccc12)NCc1cc2ccccc2o1 (stereo not shown) [Example 204, 2-[(Benzofuran-2-ylmethyl)-amino]-N-(2,5-difluoro-benzyl)-3-(1H-indol-3-yl)-propionamide]",68
13,"CC(C)(NC(=O)C(Cc1c[nH]c2ccccc12)NCc1cc2ccccc2o1)c1ccccc1 (stereo not shown) [Example 265, 2-[(Benzofuran-2-ylmethyl)-amino]-3-(1H-indol-3-yl)-N-(1-methyl-1-phenyl-ethyl)-propionamide]",328
14,"O=C(NCc1ccc(F)cc1F)C(Cc1c[nH]c2ccccc12)NCc1cc2ccccc2o1 (stereo not shown) [Example 301, 2-[(Benzofuran-2-ylmethyl)-amino]-N-(2,4-difluoro-benzyl)-3-(1H-indol-3-yl)-propionamide]",53
15,"CC(NC(=O)C(Cc1c[nH]c2ccccc12)NCc1cc2ccccc2o1)C1CCCCC1 (stereo not shown) [Example 241, 2-[(Benzofuran-2-ylmethyl)-amino]-N-(1-cyclohexyl-ethyl)-3-(1H-indol-3-yl)-propionamide]",2
16,"CC(NC(=O)C(Cc1c[nH]c2ccccc12)NCc1cc2ccccc2o1)c1cccc2ccccc12 (stereo not shown) [Example 207, 2-[(Benzofuran-2-ylmethyl)-amino]-3-(1H-indol-3-yl)-N-(1-naphthalen-1-yl-ethyl)-propionamide]",591

# Same assay, conditions: Table 4; [125I]Bolton-Hunter substance P displacement, human IM9 cells; read-out: IC50 (nM) hNK1
row,Compound,IC50 [nM]
1,"CNS(=O)(=O)c1cc(CNC(C)(Cc2c[nH]c3ccccc23)C(=O)NC(C)c2ccccc2)ccc1Cl (stereo not shown) [compound 326, 2-(4-Chloro-3-methylsulfamoyl-benzylamino)-3-(1H-indo1-3-yl)-2-methyl-N-(1-phenyl-ethyl)-propionamide]",4830
2,"CC(NC(=O)C(C)(Cc1c[nH]c2ccccc12)NCc1ccc2ccccc2n1)c1ccccc1 (stereo not shown) [compound 311, 3-(1H-Indol-3-yl)-2-methyl-N-(1-phenyl-ethyl)-2-[(quinolin-2-ylmethyl)-amino]-propionamide]",88
3,3-(1H-Indol-3-yl)-2methyl-N-(1-phenyl-ethyl)-2-[(1-phenyl-1H-indol-2-ylmethyl)-amino]-propionamide [compound 333],3610
4,"CC(NC(=O)C(C)(Cc1c[nH]c2ccccc12)NCc1cccs1)c1ccccc1 (stereo not shown) [compound 357, 3-(1H-Indol-3-yl)-2-methyl-N-(1-phenyl-ethyl)-2-[(thiophen-2-ylmethyl)-amino]-propionamide]",548

# Same assay, conditions: Table 5; [125I]Bolton-Hunter substance P displacement, human IM9 cells; read-out: IC50 (nM) hNK1
row,Compound,IC50 [nM]
1,Cc1cc(CNC(Cc2c[nH]c3ccccc23)C(=O)NC(C)c2ccccc2)c(C)n1-c1ccccc1 (stereo not shown) [compound 392],> 10000
2,CC(NC(=O)C(Cc1c[nH]c2ccccc12)NCc1ccco1)c1ccccc1 (stereo not shown) [compound 405],429
3,Cc1ccc(S(=O)(=O)Oc2cccc(CNC(Cc3c[nH]c4ccccc34)C(=O)NC(C)c3ccccc3)c2)cc1 (stereo not shown) [compound 381],> 10000

# Same assay, conditions: human NK1 receptor, IM9 cells, [125I]Bolton-Hunter substance P; read-out: IC50 (nM) hNK1
row,Compound,IC50 [nM]
1,"CC(Cc1c[nH]c2ccccc12)(NCc1cc2ccccc2o1)C(=O)NCC(c1ccccc1)c1ccccc1 (stereo not shown) [compound 98, 2-[(Benzofuran-2-ylmethyl)-amino]-N-(2,2-diphenyl-ethyl)-3-(1H-indol-3-yl)-2-methyl-propionamide]",> 10000
2,"CC(Cc1c[nH]c2ccccc12)(NCc1cc2ccccc2o1)C(=O)NCc1cnc2ccccc2c1 (stereo not shown) [compound 151, 2-[(Benzofuran-2-ylmethyl)-amino]-3-(1H-indol-3-yl)-2-methyl-N-quinolin-3-ylmethyl-propionamide]",1210
3,"CC(Cc1c[nH]c2ccccc12)(NCc1cc2ccccc2o1)C(=O)NC1CCc2ccccc21 (stereo not shown) [compound 158, 2-[(Benzofuran-2-ylmethyl)-amino]-N-indan-1-yl-3-(1H-indol-3-yl)-2-methyl-propionamide]",2570
4,"CC(NC(=O)C(C)(Cc1c[nH]c2ccccc12)NCc1cc2ccccc2o1)c1ccsc1 (stereo not shown) [compound 41, 2-[(Benzofuran-2-ylmethyl)-amino]-3-(1H-indol-3-yl)-2-methyl-N-(1-thiophen-3-yl-ethyl)-propionamide]",19
5,"CC(Cc1c[nH]c2ccccc12)(NCc1cc2ccccc2o1)C(=O)NCc1ccc(Cl)cc1F (stereo not shown) [compound 177, 2-[(Benzofuran-2-ylmethyl)-amino]-N-(4-chloro-2-fluoro-benzyl)-3-(1H-indol-3-yl)-2-methyl-propionamide]",444
6,"COc1ccc(CNC(=O)C(C)(Cc2c[nH]c3ccccc23)NCc2cc3ccccc3o2)cc1F (stereo not shown) [compound 187, 2-[(Benzofuran-2-ylmethyl)-amino]-N-(3-fluoro-4-methoxy-benzyl)-3-(1H-indol-3-yl)-2-methyl-propionamide]",131
7,"CC(Cc1c[nH]c2ccccc12)(NCc1cc2ccccc2o1)C(=O)NCCN1CCOC1=O (stereo not shown) [compound 96, 2-[(Benzofuran-2-ylmethyl)-amino]-3-(1H-indol-3-yl)-2-methyl-N-[2-(2-oxo-oxazolidin-3-yl)-ethyl]-propionamide]",> 10000
8,"CC(Cc1c[nH]c2ccccc12)(NCc1cc2ccccc2o1)C(=O)NCCN1CCCC1=O (stereo not shown) [compound 99, 2-[(Benzofuran-2-ylmethyl)-amino]-3-(1H-indol-3-yl)-2-methyl-N-[2-(2-oxo-pyrrolidin-1-yl)-ethyl]-propionamide]",> 10000
9,"CC(Cc1c[nH]c2ccccc12)(NCc1cc2ccccc2o1)C(=O)NC12CN3CN(CN(C3)C1)C2 (stereo not shown) [compound 78, 2-[(Benzofuran-2-ylmethyl)-amino]-3-(1H-indol-3-yl)-2-methyl-N-(1,3,5-triaza-tricyclo[3.3.1.1>3,7]-dec-7-yl)-propionamide]",> 10000
10,"COc1cc(C(O)CNC(=O)C(C)(Cc2c[nH]c3ccccc23)NCc2cc3ccccc3o2)ccc1O (stereo not shown) [compound 153, 2-[(Benzofuran-2-ylmethyl)-amino]-N-[2-hydroxy-2-(4-hydroxy-3-methoxy-phenyl)-ethyl]-3-(1H-indol-3-yl)-2-methyl-propionamide]",3550
11,"CC(Cc1c[nH]c2ccccc12)(NCc1cc2ccccc2o1)C(=O)NCC1(c2ccco2)CCC1 (stereo not shown) [compound 117, 2-[(Benzofuran-2-ylmethyl)-amino]-N-(1-furan-2-yl-cyclobutylmethyl)-3-(1H-indol-3-yl)-2-methyl-propionamide]",> 10000
12,"CC(Cc1c[nH]c2ccccc12)(NCc1cc2ccccc2o1)C(=O)NCCN1CCC2CCCCC21 (stereo not shown) [compound 123, 2-[(Benzofuran-2-ylmethyl)-amino]-3-(1H-indol-3-yl)-2-methyl-N-[2-(octahydro-indol-1-yl)-ethyl]-propionamide]",> 10000
13,"CC(Cc1c[nH]c2ccccc12)(NCc1cc2ccccc2o1)C(=O)NC(CO)Cc1c[nH]cn1 (stereo not shown) [compound 183, 2-[(Benzofuran-2-ylmethyl)-amino]-N-[1-hydroxymethyl-2-(1H-imidazol-4-yl)-ethyl]-3-(1H-indol-3-yl)-2-methyl-propionamide]",> 10000
14,CC(Cc1c[nH]c2ccccc12)(NCc1cc2ccccc2o1)C(=O)NCC1(c2ccccc2)OCCO1 (stereo not shown) [compound 105],> 10000
